Laboratory results from PubChem BioAssay (NCI).
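Each compound was tested at five concentrations against cells in 96-well plates for 48 hours. TGI: concentration producing complete growth inhibition.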

What was measured:
Experiment in all cases: NCI anticancer screen, dose series, 48 h
[1] = test system: SR leukemia
[2] = test system: MALME-3M melanoma
[3] = test system: SK-MEL-28 melanoma
[4] = test system: RXF 393 renal
[5] = test system: 786-0 renal
[6] = test system: NCI-H522 lung
[7] = test system: SNB-75 CNS
[8] = test system: NCI-H460 lung
[9] = test system: PC-3 prostate
[10] = test system: SN12C renal
[11] = test system: SF-268 CNS
[12] = test system: HS 578T breast
[13] = test system: HOP-92 NSCLC
[14] = test system: CCRF-CEM leukemia
[15] = test system: OVCAR-4 ovarian
[16] = test system: SNB-19 CNS

Row | Compound | TGI [1] [µM] | TGI [2] [µM] | TGI [3] [µM] | TGI [4] [µM] | TGI [5] [µM] | TGI [6] [µM] | TGI [7] [µM] | TGI [8] [µM] | TGI [9] [µM] | TGI [10] [µM] | TGI [11] [µM] | TGI [12] [µM] | TGI [13] [µM] | TGI [14] [µM] | TGI [15] [µM] | TGI [16] [µM]
1 | O=C1CC(=O)NC(=NN2C(=O)CSC2c2ccc(Cl)cc2)N1 (stereo unspecified) | > 100 | > 100 | > 100 | > 100 | > 100 | > 100 | > 100 | > 100 | > 100 | 47.6 | > 100 | > 100 | > 100 | 83.3 | > 100 | 
2 | O=C(Oc1ccc(C(c2c(O)c3ccccc3oc2=O)c2c(O)c3ccccc3oc2=O)cc1)c1ccc(C(=O)c2ccccc2)cc1 | 55.7 |  | 36.5 | 83.6 | > 100 | 30.6 | 32.4 | 45.6 | 35.8 | > 100 | 66.5 | > 100 |  | 42.8 | 92.1 | 37.2
3 | CC(=O)O[C@H]1[C@@H](OC2CCCC2(c2ccccc2)c2ccccc2)O[N+]([O-])=C[C@@H]1c1ccccc1 (stereo partly specified) | > 20.3 |  | 8.65 | 8.48 | 3.26 | 2.62 | 18 | 60.2 | 21.2 | 16.9 | 13.4 | 20.5 | 18.2 | 14 | 21.4 | 29.7
4 | c1ccc(CN2C3C4N(Cc5ccccc5)C2C2N(Cc5ccccc5)C(C(N2Cc2ccccc2)N4Cc2ccccc2)N3Cc2ccccc2)cc1 | > 100 |  | > 100 | > 100 | > 100 | > 100 | > 100 |  | > 100 | > 100 | > 100 | > 100 | > 100 | > 100 |  | 
5 | CNc1ccc(C)cc1S(=O)(=O)c1ccccc1[N+](=O)[O-] | > 100 | > 100 | > 100 | > 100 | > 100 | > 100 | > 100 | > 100 | > 100 | > 100 | > 100 | > 100 |  | > 100 | 92 | > 100
6 | COc1ccc(C[C@@H]2OC3(C=CC(=O)CC3Sc3ccccc3)O[C@H]2Cc2ccc(OC)cc2)cc1 (stereo partly specified) | 0.583 | 4.02 | 3.35 | 0.348 | 0.365 |  | 3.05 | 12.1 | 3.95 | 5.22 | 1.75 | 4.19 | 2.49 | 0.768 | 3.7 | 10.3
7 | O=C(O)CCC1C(=O)C2CCN1CC2 (stereo unspecified) | > 100 | > 100 | > 100 | > 100 | > 100 | > 100 | > 100 | > 100 | > 100 | > 100 | > 100 | > 100 |  | > 100 | > 100 | > 100
